Data on one compound can be found in paper PMC4138103 (PLoS ONE, 2014).

Data set [1] deals with Dopamine receptors D1 and D5. The data set can be described thus: Brain [3H]SCH23390 binding in exposed rats. Format: in vivo, Rattus norvegicus. To be noted: males. The protocol:
(§1) The membrane containing pellet was homogenized in 15 volumes of 50 mM Tris-HCl buffer at pH 7.4, incubated at 25°C for 30 min, and centrifuged again at 100 000 g. The pellet from the second centrifugation was dissolved in 4 ml 0.32 M sucrose/g brain (v/w), with a final protein concentration of […] and frozen at −40°C.
Dopamine receptors D1 and D5 were analyzed as described before, [39]. In brief, 50 µl (0.7 mg protein) of the membrane preparation was incubated with 124–132 µl buffer (50 mM tris-HCL, 120 mM NaCl, 5 mM KCl, 2,5 mM CaCl2 and 1 mM MgCl2, pH 7.4) and 100 nM ketanserine (Tocris Bioscience, Bristol, UK; to block binding of SCH23390 to the 5-HT receptor) to a final volume of 200 µl. For measuring unspecific binding […] SCH23390 was added to the same mixture. Finally, 1 nM [^3H]SCH23390 was added to all samples to measure binding of the receptors or unspecific binding. The samples were incubated for 30 min at 25°C followed by vacuum filtration and scintillation counting.
Samples were vacuum filtrated trough Whatman glassfiber-filters (type GF/B, 25 mm) and washed 3×3 ml ice-cold incubation buffer. To reduce unspecific binding, the filters where pre-wetted in 1% polyetylenimine for 60 min. […] Radioactive binding was measured as disintegration per minute (DPM1) in a scintillation counter (Tri-Carb 3100TR, Perkin Elmer). […]

Data set [2] concerns Nicotinic receptor subunits α4 and β2. Briefly: Brain [3H]epibatidin binding in exposed rats. Format: in vivo, Rattus norvegicus. The settings on record: males. The method, then:
as §1
Nicotinic receptor subunits α4 and β2 were analyzed as above with the following modifications: 8 µl (0.1 mg protein) of the same membrane preparation was incubated with 415–472 µl buffer (50 mM tris-HCL, pH 7.4), 0.1–1 nM [^3H]epibatidin and 0.1 mM (-)nicotine for measuring unspecific binding, to a final volume of 500 µl. […] The samples were incubated with [^3H]epibatidin for 1 h followed by vacuum filtration and scintillation counting.
Samples were vacuum filtrated trough Whatman glassfiber-filters (type GF/B, 25 mm) and washed 3×3 ml ice-cold incubation buffer. To reduce unspecific binding, the filters where pre-wetted in 1% polyetylenimine for 60 min. The filters were placed into a filtration bucket and coupled to a mechanical vacuum pump. After filtration the bucket was disassembled and the filters transferred into plastic tubes and 4 ml filtercount fluid was added. Radioactive binding was measured as disintegration per minute (DPM1) in a scintillation counter (Tri-Carb 3100TR, Perkin Elmer). The analyses were carried out in duplicates

The mark [3] stands for this setting: total dose 1000 mg/kg bw, group mean.

The structures appear in SMILES notation.

As for `Clc1cc(Cl)c(-c2cc(Cl)c(Cl)c(Cl)c2Cl)cc1Cl` [PCB 180, 2,2′,3′,4,4′,5,5′-heptachlorobiphenyl], the “Specific [3H]SCH23390 binding to D1/D5 dopamine receptors in cerebrum vs controls” value in data set [1] (1000 mg/kg bw) is on record as “No significant differences”. Also, the “Dopamine D1/D5 receptor binding” value in data set [1] (setting [3]) amounted to 1075 DPM1. In addition, the “Specific binding of [3H]epibatidin to high or low affinity sites of nicotinic receptor subunit α4/β2 vs controls” value in data set [2] (1000 mg/kg bw) is given as “no significant difference”. In data set [2] (setting [3]), the “High affinity nicotinic receptor binding (α4/β2)” value was determined as 656 DPM1 and the “Low affinity nicotinic receptor binding (α4/β2)” value came to 1492 DPM1.
